Data from ChEMBL document CHEMBL1649297, “Mutations in ribosomal protein L3 are associated with oxazolidinone resistance in staphylococci of clinical origin” (2009).
Values after ≈ are worked out from the molar mass of the structure shown.

Experiments:
Assay type in all cases: functional
[1] = system: Staphylococcus epidermidis; assay: Antibacterial activity against Staphylococcus epidermidis 1653059 harboring rplC G469A/C470G, L3 Ala157Arg and 23S rRNA G2447T mutant by CLSI broth microdilution assay
[2] = system: Staphylococcus epidermidis; assay: Antibacterial activity against […] Staphylococcus epidermidis ATCC 12228 by CLSI broth microdilution assay
Staphylococcus aureus [3] = assay: Antibacterial activity against methicillin-susceptible Staphylococcus aureus ATCC 29213 by CLSI broth microdilution assay
Staphylococcus aureus [4] = assay: Antibacterial activity against Staphylococcus aureus NARSA NRS127 harboring rplC T433 to T435 and L3 Ser145 deletion mutant by CLSI broth microdilution assay

| Structure (SMILES) | MIC [1] | MIC [2] | MIC (Staphylococcus aureus [3]) | MIC (Staphylococcus aureus [4]) |
| --- | --- | --- | --- | --- |
| C=C[C@]1(C)C[C@@H](OC(=O)CSCCN(CC)CC)[C@]2(C)[C@H](C)CC[C@]3(CCC(=O)[C@H]32)[C@@H](C)[C@@H]1O [TIAMULIN] | 8 µg/mL (≈ 16.2 µM) | 0.5 µg/mL (≈ 1.01 µM) | 1 µg/mL (≈ 2.03 µM) | 4 µg/mL (≈ 8.1 µM) |
| Cn1nnc(-c2ccc(-c3ccc(N4C[C@H](CO)OC4=O)cc3F)cn2)n1 [TEDIZOLID] | 16 µg/mL (≈ 43.2 µM) | 0.25 µg/mL (≈ 0.675 µM) | 0.5 µg/mL (≈ 1.35 µM) | 1 µg/mL (≈ 2.7 µM) |
| CC(=O)NC[C@H]1CN(c2ccc(N3CCOCC3)c(F)c2)C(=O)O1 [LINEZOLID] | 256 µg/mL (≈ 759 µM) | 1 µg/mL (≈ 2.96 µM) |  | 8 µg/mL (≈ 23.7 µM) |
| O=C(N[C@H](CO)[C@H](O)c1ccc([N+](=O)[O-])cc1)C(Cl)Cl [CHLORAMPHENICOL] | 2 µg/mL (≈ 6.19 µM) | 1 µg/mL (≈ 3.09 µM) | 8 µg/mL (≈ 24.8 µM) | 8 µg/mL (≈ 24.8 µM) |
